From publication PMC6270814, “Effects of Ursolic Acid Derivatives on Caco-2 Cells and Their Alleviating Role in Streptozocin-Induced Type 2 Diabetic Rats” (Molecules, 2014)

What was measured:
Caco-2 cells = experiment: 2-NBDG glucose uptake by Caco-2 cell monolayers, Na+-independent (sodium free buffer); assay type: cell-based, Human; conditions: 100 μM compound, Na+-independent (KCl/K2HPO4 buffer)
Procedure: Caco-2 cells, which were derived from human colon adenocarcinoma, were selected for intestinal absorption studies because these cells express the morphological characteristics and most of the functional properties of differentiated small-intestinal enterocytes. Caco-2 cells were seeded on 24-well plates at the density of 2 × 10^5 cells/well. The medium was changed every 1–2 days, and the culture was carried out for 13 days. Then Caco-2 cells were placed in serum-free media for 24 h and then they were washed twice with Hanks’ balanced salt solution (HBSS, pH 7.5, 140 mM NaCl, 5 mM KCl, 1.2 mM Na2HPO4, 2 mM CaCl2, 1.2 mM MgSO4, 20 mM HEPES, 0.2% bovine serum albumin) before the uptake studies. When a sodium free buffer was required, NaCl and Na2HPO4 were replaced with equal amounts of KCl and K2HPO4, respectively. After washing, the cells were incubated for 15 min at room temperature in HBSS before the commencement of this experiment. The uptake studies were initiated by adding HBSS containing either control or test solution (100 μM) and […] (100 μM) for 30 min at 37 °C. Glucose uptake was stopped by adding twofold volume of ice-cold PBS and the wells were washed with ice-cold PBS three times. Fluorescent intensity was measured by a Multimodel Plate Reader (Tecan Infinity 200) with the 485 nmex and 535 nmemiss filter set before and after adding 2-NBDG. Then the cells were lysed in 200 μL lysis buffer (10 mM Tris-HCl pH = 7.4, 150 mM NaCl, 1% Triton-x-100, 1 mM EDTA, 0.1% SDS) and supplemented immediately before they were processed with 10 μg/mL PMSF. Cells were allowed to lyse on ice, and then vortexed and sonicated. The lysate was used for protein determination, protein concentrations were determined as described by BCA kit (Boster, Wuhan, China) with bovine serum albumin as standard.

GLUT-2 = experiment: Western blot of GLUT-2 protein expression in Caco-2 cells; assay type: cell-based, Human; conditions: 100 μM, 6 h
Procedure: Caco-2 cells were cultured on 6-well plates at a density of 1 × 10^6 cells/well for 13 days. The cells were placed in serum-free medium for 24 h prior to the treatment. Then UA and its derivatives (100 μM) were added, after 6 h incubation, the cells were immediately washed three times with ice-cold PBS and lysed in 200 μL lysis buffer. Cells were allowed to lyse on ice, and then scraped, vortexed, sonicated and stored at −80 °C for further analysis. Protein concentrations were determined as described and cell lysate was subjected to western blot analysis. Briefly, proteins with same amount were denatured in sample buffer, separated on 8% SDS-PAGE gel, and transferred onto a polyvinylidene diflouride membrane. The membranes were blocked for 1 h at 37 °C with 10% defatted milk in Tris-buffered saline (10 mM Tris-HCl, pH 7.5 and 137 mM NaCl) containing 0.05% Tween 20 (TBST). Membranes were then incubated overnight at 4 °C in blocking buffer with antibodies for GLUT-2, SGLT-1 and β-actin (EMD, Millipore, Billerica, MA, USA). Membranes were washed with TBST and incubated 1 h with appropriate secondary antibodies. Revelation was performed by using the enhanced chemiluminescence reagent and blue-light sensitive film. Densitometric analysis of films was performed with a Hewlett-Packard scanner equipped with a transparent adaptor and UN-SCAN-IT software.

[1] = system: STZ-induced diabetic rats; experiment: Serum biochemical parameters (insulin, total protein, albumin) in STZ-induced diabetic rats; assay type: in vivo, rat; conditions: 4 weeks, compounds 100 mg/kg, glibenclamide 10 mg/kg
Procedure: (§1) Diabetes was induced by a single intraperitoneal injection of streptozotocin (Sigma-Aldrich, St. Louis, MO, USA) at a dose of 65 mg/kg body weight. STZ was dissolved in 0.1 M cold citrate buffer, pH 4.5. Control group were injected with citrate buffer alone. After 7 days for the development of diabetes, plasma glucose levels were determined of each rat. Rats with fasting blood glucose (FBG) range of above 16.7 mmol/L were considered as DM rats and were used for further study.
(§2) According to the body weight and plasma glucose levels the rats were divided randomly into seven groups with six rats each and treated as follows: • Group I: Normal rats treated with 0.5% CMC-Na (2 mL/200 g body weight). • Group II: Diabetic rats treated with 0.5% CMC-Na. • Group III: Diabetic rats treated with 10 mg/kg of glibenclamide. • Group IV: Diabetic rats treated with 100 mg/kg of compound 1 (UA). • Group V: Diabetic rats treated with 100 mg/kg of compound 10. • Group VI: Diabetic rats treated with 100 mg/kg of compound 11. • Group VII: Diabetic rats treated with 100 mg/kg of compound 12.
(§3) The treatment was continued daily for 28 days. Blood glucose levels and body weight were measured every week to ascertain the status of diabetes. After 4 weeks of treatment, the animals were fasted for 12 h and sacrificed by cervical dislocation under mild anaesthetization, blood was collected into heparinized tubes and centrifuged at 2,000 rpm for 10 min. Livers and kidneys were removed, washed and homogenized in ice-cold normal saline. This homogenates were centrifuged at 3,000 rpm for 10 min at 4 °C, and the supernatants were collected for the estimate of antioxidant markers.
(§4) Fasting blood glucose levels were estimated on days 0, 7, 14, 28 with the single touch glucometer (Life Scan, Johnson & Johnson Company, New Brunswick, NJ, USA). Serum insulin level was measured by use of a commercial immunoassay kit by enzyme linked immunosorbent assay (Uscn. Life Science Inc., Wuhan, China). Serum total protein, albumin, triglycerides (TG), total cholesterol (TC), high-density lipoprotein cholesterol (HDL-C), and low-density lipoprotein cholesterol (LDL-C) were measured with an automatic biochemical analyzer (Sinnowa D240, Nanjing, China).

[2] = system: STZ-induced diabetic rats; experiment: Body weight and daily food intake of STZ-induced diabetic rats; assay type: in vivo, rat
Procedure: as §1, §2, §3

[3] = system: STZ-induced diabetic rats; experiment: Serum lipid profile (TG, TC, LDL-C, HDL-C) in STZ-induced diabetic rats; assay type: in vivo, rat; conditions: 4 weeks, compounds 100 mg/kg, glibenclamide 10 mg/kg
Procedure: as §1, §2, §3, §4

[4] = system: STZ-induced diabetic rats; experiment: Oxidative stress markers (GSH, SOD, MDA) in liver and kidney of STZ-induced diabetic rats; assay type: in vivo, rat; conditions: 4 weeks
Procedure: as §1, §2, §3
The tissue homogenates of liver and kidney were used for the estimate of antioxidant markers. Glutathione (GSH) level was measured with 5, 5'-dithiobis-(2-nitrobenzoic acid) (DTNB) as described by Sedlak and Lindsay. Superoxide dismutase (SOD) activity was assessed according to the method of Sinha. Malondialdehyde (MDA) activity was estimated with the thiobarbituric acid method.

Compound: CCC(=O)O[C@H]1CC[C@@]2(C)C(CC[C@]3(C)C2CC=C2C4[C@@H](C)[C@H](C)CC[C@]4(C(=O)O)CC[C@]23C)C1(C)C (stereo partly drawn) [Compound 10]
- glucose uptake, % of the control value (Na+-independent) (Caco-2 cells): 70 % of the control value
- effect on expression of protein GLUT-2 (GLUT-2): significant effects on reducing
- serum albumin level vs diabetic control [1]: increased significantly
- serum insulin level vs diabetic control [1]: increased significantly
- serum total protein level vs diabetic control [1]: increased significantly
- daily food intake vs untreated diabetic rats ([2]; compounds 100 mg/kg, glibenclamide 10 mg/kg, oral): reduce daily food intake significantly
- body weight vs diabetic control ([2]; end of the treatment period, 100 mg/kg): significant increase
- serum TC level vs diabetic control [3]: significantly decreased
- serum TG level vs diabetic control [3]: significantly decreased
- SOD level in the liver and kidney ([4]; liver and kidney of STZ diabetic rats): great improvement
- GSH level in liver ([4]; liver of STZ diabetic rats): significant effects
- MDA level in the liver ([4]; liver of STZ diabetic rats, daily administration): obviously down-regulated
